According to ChEMBL document CHEMBL1133057, “Synthesis and in vitro antibacterial activity of 3-[N-methyl-N-(3-methyl-1,3-thiazolium-2-yl)aminolmethyl cephalosporin derivatives” (2000):
Converted amounts (≈) assume the structure as drawn.

Legend:
[1] = test system: Escherichia coli; assay: Compound was tested in vitro for its minimum inhibitory concentration by serial 2-fold agar dilution Muller Hinton method against Escherichia coli 1507E; type: functional
[2] = test system: Escherichia coli; assay: Compound was tested in vitro for its minimum inhibitory concentration by serial 2-fold agar dilution Muller Hinton method against Escherichia coli DC 0; type: functional
[3] = test system: Escherichia coli; assay: Compound was tested in vitro for its minimum inhibitory concentration by serial 2-fold agar dilution Muller Hinton method against Escherichia coli DC 2; type: functional
[4] = test system: Escherichia coli; assay: Compound was tested in vitro for its minimum inhibitory concentration by serial 2-fold agar dilution Muller Hinton method against Escherichia coli O 55; type: functional
[5] = test system: Enterobacter cloacae; assay: Compound was tested in vitro for its minimum inhibitory concentration by serial 2-fold agar dilution Muller Hinton method against Enterobacter cloacae P99; type: functional
[6] = test system: Klebsiella oxytoca; assay: Compound was tested in vitro for its minimum inhibitory concentration by serial 2-fold agar dilution Muller Hinton method against Klebsiella oxytoca 1082 E; type: functional
[7] = test system: Klebsiella aerogenes; assay: Compound was tested in vitro for its minimum inhibitory concentration by serial 2-fold agar dilution Muller Hinton method against Klebsiella aerogenes 1522 E; type: functional
[8] = test system: Pseudomonas aeruginosa; assay: Compound was tested in vitro for its minimum inhibitory concentration by serial 2-fold agar dilution Muller Hinton method against Pseudomonas aeruginosa 1592 E; type: functional
[9] = test system: Pseudomonas aeruginosa; assay: Compound was tested in vitro for its minimum inhibitory concentration by serial 2-fold agar dilution Muller Hinton method against Pseudomonas aeruginosa 1771 M; type: functional
[10] = test system: Staphylococcus aureus; assay: Compound was tested in vitro for its minimum inhibitory concentration by serial 2-fold agar dilution Muller Hinton method against Staphylococcus aureus 503; type: functional
[11] = test system: Staphylococcus aureus; assay: Compound was tested in vitro for its minimum inhibitory concentration by serial 2-fold agar dilution Muller Hinton method against Staphylococcus aureus SG511; type: functional
[12] = test system: Staphylococcus aureus; assay: Compound was tested in vitro for its minimum inhibitory concentration by serial 2-fold agar dilution Muller Hinton method against Staphylococcus aureus 285; type: functional
[13] = test system: Streptococcus pyogenes; assay: Compound was tested in vitro for its minimum inhibitory concentration by serial 2-fold agar dilution Muller Hinton method against Streptococcus pyogenes 8b; type: functional
[14] = test system: Streptococcus pyogenes; assay: Compound was tested in vitro for its minimum inhibitory concentration by serial 2-fold agar dilution Muller Hinton method against Streptococcus pyogenes A 308; type: functional
[15] = test system: Streptococcus pyogenes; assay: Compound was tested in vitro for its minimum inhibitory concentration by serial 2-fold agar dilution Muller Hinton method against Streptococcus pyogenes A77; type: functional
[16] = test system: Pseudomonas aeruginosa; assay: Compound was tested in vitro for its minimum inhibitory concentration by serial 2-fold agar dilution Muller Hinton method against Pseudomonas aeruginosa 1771; type: functional
[17] = test system: Salmonella typhimurium; assay: Compound was tested in vitro for its minimum inhibitory concentration by serial 2-fold agar dilution Muller Hinton method against Salmonella Typhimurium; type: functional, Salmonella enterica subsp. enterica serovar Typhimurium; settings: Salmonella enterica
[18] = test system: Enterobacter cloacae; assay: Compound was tested in vitro for its minimum inhibitory concentration by serial 2-fold agar dilution Muller Hinton method against Enterobacter cloacae 1321; type: functional
[19] = test system: Escherichia coli; assay: Compound was tested in vitro for its minimum inhibitory concentration by serial 2-fold agar dilution Muller Hinton method against Escherichia coli TEM; type: functional
[20] = test system: Pseudomonas aeruginosa; assay: Compound was tested in vitro for its minimum inhibitory concentration by serial 2-fold agar dilution Muller Hinton method against Pseudomonas aeruginosa 9027; type: functional

| Compound | MIC [1] [µg/mL] | MIC [2] [µg/mL] | MIC [3] [µg/mL] | MIC [4] [µg/mL] | MIC [5] [µg/mL] | MIC [6] [µg/mL] | MIC [7] [µg/mL] | MIC [8] [µg/mL] | MIC [9] [µg/mL] | MIC [10] [µg/mL] | MIC [11] [µg/mL] | MIC [12] [µg/mL] | MIC [13] [µg/mL] | MIC [14] [µg/mL] | MIC [15] [µg/mL] | MIC [16] [µg/mL] | MIC [17] [µg/mL] | MIC [18] [µg/mL] | MIC [19] [µg/mL] | MIC [20] [µg/mL] |
| --- | --- | --- | --- | --- | --- | --- | --- | --- | --- | --- | --- | --- | --- | --- | --- | --- | --- | --- | --- | --- |
| CCO/N=C(\C(=O)NC1C(=O)N2C(C(=O)[O-])=C(CN(C)c3sc(C(=O)OCC)c(C)[n+]3C)CSC12)c1csc(N)n1 (stereo not given) | 0.098 (≈ 0.157 µM) | 0.098 (≈ 0.157 µM) | 0.049 (≈ 0.0786 µM) | 0.049 (≈ 0.0786 µM) | 3.12 (≈ 5.01 µM) | 6.25 (≈ 10 µM) | 0.049 (≈ 0.0786 µM) | 50 (≈ 80.2 µM) | 1.56 (≈ 2.51 µM) | 0.781 (≈ 1.25 µM) | 1.56 (≈ 2.51 µM) | 1.56 (≈ 2.51 µM) | 25 (≈ 40.1 µM) | 0.007 (≈ 0.0112 µM) | 0.004 (≈ 0.00641 µM) | 25 (≈ 40.1 µM) | 0.049 (≈ 0.0786 µM) | 0.025 (≈ 0.0401 µM) | 0.195 (≈ 0.313 µM) | 100 (≈ 160 µM) |
| C=CCO/N=C(\C(=O)NC1C(=O)N2C(C(=O)[O-])=C(CN(C)c3sc4c([n+]3C)CCCC4)CSC12)c1csc(N)n1 (stereo not given) | 0.391 (≈ 0.648 µM) | 0.391 (≈ 0.648 µM) | 0.025 (≈ 0.0414 µM) | 0.049 (≈ 0.0812 µM) | 12.5 (≈ 20.7 µM) | 6.25 (≈ 10.4 µM) | 0.195 (≈ 0.323 µM) | 50 (≈ 82.8 µM) | 0.781 (≈ 1.29 µM) | 0.195 (≈ 0.323 µM) | 0.391 (≈ 0.648 µM) | 0.781 (≈ 1.29 µM) | 50 (≈ 82.8 µM) | 0.004 (≈ 0.00663 µM) | 0.004 (≈ 0.00663 µM) | 6.25 (≈ 10.4 µM) | 0.195 (≈ 0.323 µM) | 0.049 (≈ 0.0812 µM) | 0.391 (≈ 0.648 µM) | 50 (≈ 82.8 µM) |
| CCO/N=C(\C(=O)NC1C(=O)N2C(C(=O)[O-])=C(CN(C)c3scc(C)[n+]3C)CSC12)c1csc(N)n1 (stereo not given) | 0.098 (≈ 0.178 µM) | 0.098 (≈ 0.178 µM) | 0.025 (≈ 0.0453 µM) | 0.025 (≈ 0.0453 µM) | 25 (≈ 45.3 µM) | 6.25 (≈ 11.3 µM) | 0.049 (≈ 0.0888 µM) | 12.5 (≈ 22.7 µM) | 0.391 (≈ 0.709 µM) | 0.391 (≈ 0.709 µM) | 0.781 (≈ 1.42 µM) | 1.56 (≈ 2.83 µM) | 50 (≈ 90.6 µM) | 0.013 (≈ 0.0236 µM) | 0.013 (≈ 0.0236 µM) | 3.12 (≈ 5.66 µM) | 0.049 (≈ 0.0888 µM) | 0.025 (≈ 0.0453 µM) | 0.098 (≈ 0.178 µM) | 25 (≈ 45.3 µM) |
| CCOC(=O)c1sc(N(C)CC2=C(C(=O)[O-])N3C(=O)C(NC(=O)/C(=N\OC)c4csc(N)n4)C3SC2)[n+](C)c1C (stereo not given) | 0.098 (≈ 0.161 µM) | 0.098 (≈ 0.161 µM) | 0.049 (≈ 0.0804 µM) | 0.049 (≈ 0.0804 µM) | 3.12 (≈ 5.13 µM) | 6.25 (≈ 10.3 µM) | 0.049 (≈ 0.0804 µM) | 50 (≈ 82 µM) | 1.56 (≈ 2.56 µM) | 0.781 (≈ 1.28 µM) | 1.56 (≈ 2.56 µM) | 1.56 (≈ 2.56 µM) | 25 (≈ 41 µM) | 0.007 (≈ 0.0115 µM) | 0.004 (≈ 0.00656 µM) | 25 (≈ 41 µM) | 0.049 (≈ 0.0804 µM) | 0.025 (≈ 0.041 µM) | 0.195 (≈ 0.32 µM) | 100 (≈ 164 µM) |

The remaining compounds from weak to strong by MIC [1], led by results:

| MIC [1] [µg/mL] | MIC [2] [µg/mL] | MIC [3] [µg/mL] | MIC [4] [µg/mL] | MIC [5] [µg/mL] | MIC [6] [µg/mL] | MIC [7] [µg/mL] | MIC [8] [µg/mL] | MIC [9] [µg/mL] | MIC [10] [µg/mL] | MIC [11] [µg/mL] | MIC [12] [µg/mL] | MIC [13] [µg/mL] | MIC [14] [µg/mL] | MIC [15] [µg/mL] | MIC [16] [µg/mL] | MIC [17] [µg/mL] | MIC [18] [µg/mL] | MIC [19] [µg/mL] | MIC [20] [µg/mL] | Compound |
| --- | --- | --- | --- | --- | --- | --- | --- | --- | --- | --- | --- | --- | --- | --- | --- | --- | --- | --- | --- | --- |
| 0.098 (≈ 0.187 µM) | 0.098 (≈ 0.187 µM) | 0.098 (≈ 0.187 µM) | 0.025 (≈ 0.0477 µM) | 50 (≈ 95.5 µM) | 25 (≈ 47.7 µM) | 0.098 (≈ 0.187 µM) | 50 (≈ 95.5 µM) | 1.56 (≈ 2.98 µM) | 0.391 (≈ 0.747 µM) | 1.56 (≈ 2.98 µM) | 3.12 (≈ 5.97 µM) | > 100 | 0.007 (≈ 0.0134 µM) | 0.007 (≈ 0.0134 µM) | 25 (≈ 47.7 µM) | 0.098 (≈ 0.187 µM) | 0.049 (≈ 0.0936 µM) | 0.098 (≈ 0.187 µM) | 50 (≈ 95.5 µM) | CO/N=C(\C(=O)NC1C(=O)N2C(C(=O)[O-])=C(CN(C)c3scc[n+]3C)CSC12)c1csc(N)n1 (stereo not given) |
| 0.049 (≈ 0.0848 µM) | 0.049 (≈ 0.0848 µM) | 0.025 (≈ 0.0433 µM) | 0.025 (≈ 0.0433 µM) | 6.25 (≈ 10.8 µM) | 3.12 (≈ 5.41 µM) | 0.025 (≈ 0.0433 µM) | 25 (≈ 43.3 µM) | 0.781 (≈ 1.35 µM) | 0.195 (≈ 0.338 µM) | 0.391 (≈ 0.677 µM) | 0.781 (≈ 1.35 µM) | 12.5 (≈ 21.6 µM) | 0.007 (≈ 0.0121 µM) | 0.007 (≈ 0.0121 µM) | 6.25 (≈ 10.8 µM) | 0.049 (≈ 0.0848 µM) | 0.013 (≈ 0.0225 µM) | 0.049 (≈ 0.0848 µM) | 50 (≈ 86.5 µM) | CO/N=C(\C(=O)NC1C(=O)N2C(C(=O)[O-])=C(CN(C)c3sc4c([n+]3C)CCCC4)CSC12)c1csc(N)n1 (stereo not given) |
| 0.049 (≈ 0.0844 µM) | 0.049 (≈ 0.0844 µM) | 0.025 (≈ 0.0431 µM) | 0.025 (≈ 0.0431 µM) | 6.25 (≈ 10.8 µM) | 3.12 (≈ 5.38 µM) | 0.025 (≈ 0.0431 µM) | 25 (≈ 43.1 µM) | 0.781 (≈ 1.34 µM) | 0.195 (≈ 0.336 µM) | 0.391 (≈ 0.673 µM) | 0.781 (≈ 1.34 µM) | 12.5 (≈ 21.5 µM) | 0.007 (≈ 0.0121 µM) | 0.007 (≈ 0.0121 µM) | 6.25 (≈ 10.8 µM) | 0.049 (≈ 0.0844 µM) | 0.013 (≈ 0.0224 µM) | 0.049 (≈ 0.0844 µM) | 50 (≈ 86.1 µM) | CO/N=C(\C(=O)NC1C(=O)N2C(C(=O)[O-])=C(CN(C)c3sc(C(N)=O)c(C)[n+]3C)CSC12)c1csc(N)n1 (stereo not given) |
